According to patent US20240327384A1, “SALTS AND SOLID STATE FORMS OF A KIF18A INHIBITOR COMPOUND” (Amgen Inc., priority 2021, published 2024):
≈ marks a conversion by molar mass, not a printed value. Where two headings read alike, the source gives them in different places. Marks after values point to notes of the source that are not given here.

Assays:
[1] = Dynamic vapor sorption (moisture sorption, hygroscopicity); assay type: physicochemical; conditions: for DVS weight gain: by 95% RH
Protocol: Moisture sorption data was collected using a VTI SGA 100 symmetrical vapor sorption analyzer. A sample size of approximately 5 mg to 10 mg was used in a platinum pan. Hygroscopicity was evaluated from 5% RH to 95% RH in increments of 5% RH. Data for adsorption and desorption cycles were collected. […] Dynamic Vapor Sorption (DVS): Moisture sorption data was collected using a Surface Measurement Systems […] instrument. Equilibrium criteria were set at ±0.001% weight change in 10 minutes with a maximum equilibrium time of 360 minutes.

[2] = Polymorph/salt screening: solid form stability, conversion and solubility; assay type: physicochemical
[3] = Solubility and powder dissolution in FaSSGF, FaSSIF, FeSSIF, water (Example 44); assay type: physicochemical; conditions: for Sol (pH), Water (first value pair after FeSSIF): pH 1.14 (HCl Form 1), pH 1.08 (Variable Hydrate Form 2); for Sol (pH), Water (first value pair after FeSSIF) / Sol (pH), Water (second value pair after FeSSIF): head of medium unclear; for Sol (pH), Water (second value pair after FeSSIF): pH 1.58 (HCl Form 1), pH 1.64 (Variable Hydrate Form 2)
Protocol: Solubilities of various forms of the Compound A and the Compound A-HCl Form 1 were measured in Fasted State Simulated Gastric Fluid (FaSSGF), Fasted State Simulated Intestinal Fluid (FaSSIF), fed state simulated intestinal fluid […], and water.

[4] = Intrinsic dissolution rate (IDR) test; assay type: physicochemical
[5] = Solubility and powder dissolution of salts in FaSSIF (Example 46); assay type: physicochemical
From the text: All three salts can convert to the free base, but maintain supersaturation in FaSSIF for some time, which indicated a potential good absorption in vivo if used in a pharmaceutical dosage form.

Dog cross-over PK study = assay type: in vivo
Protocol: A total of 3 male dogs were initially assigned to study. All animals were fasted for at least eight hours prior to dosing and through the first four hours of blood sample collection (food was returned within 30 minutes following the collection of the last blood sample at the 4 hour collection interval, if applicable).
Each animal receiver an oral gavage dose (PO) of the appropriate test article solution containing Compound A as outlined in the following study design table. Oral gavage dosing solutions were continuously stirred throughout dosing. The gavage tubes were rinsed with approximately 10 mL of tap water following dosing (prior to removal of the gavage tube). There was a minimum of 10-day washout period between doses for each phase.

[6] = Solubility in crystallization solvent 80/20 acetone/water; assay type: physicochemical; conditions: organic solvent or mixture; 80/20 (v/v) acetone/water, crystallization and slurry aging solvent
Protocol: The process was unseeded and crystal growth occurs during the addition of hydrochloric acid to the Compound A solution. The final slurry was aged at ambient temperature for 10 h, then cooled to 10° C. prior to wet milling. Isolation of the milled material occurred at 10° C. followed by washing of the filter cake with 8 volumes of acetone. The material was dried at 40° C. under vacuum.

KIF18A = biological target: T1, KIF18A (Homo sapiens, UniProt Q8NI77); assay: KIF18A ATPase inhibition; assay type: biochemical
T1 sequence (Q8NI77 1-898): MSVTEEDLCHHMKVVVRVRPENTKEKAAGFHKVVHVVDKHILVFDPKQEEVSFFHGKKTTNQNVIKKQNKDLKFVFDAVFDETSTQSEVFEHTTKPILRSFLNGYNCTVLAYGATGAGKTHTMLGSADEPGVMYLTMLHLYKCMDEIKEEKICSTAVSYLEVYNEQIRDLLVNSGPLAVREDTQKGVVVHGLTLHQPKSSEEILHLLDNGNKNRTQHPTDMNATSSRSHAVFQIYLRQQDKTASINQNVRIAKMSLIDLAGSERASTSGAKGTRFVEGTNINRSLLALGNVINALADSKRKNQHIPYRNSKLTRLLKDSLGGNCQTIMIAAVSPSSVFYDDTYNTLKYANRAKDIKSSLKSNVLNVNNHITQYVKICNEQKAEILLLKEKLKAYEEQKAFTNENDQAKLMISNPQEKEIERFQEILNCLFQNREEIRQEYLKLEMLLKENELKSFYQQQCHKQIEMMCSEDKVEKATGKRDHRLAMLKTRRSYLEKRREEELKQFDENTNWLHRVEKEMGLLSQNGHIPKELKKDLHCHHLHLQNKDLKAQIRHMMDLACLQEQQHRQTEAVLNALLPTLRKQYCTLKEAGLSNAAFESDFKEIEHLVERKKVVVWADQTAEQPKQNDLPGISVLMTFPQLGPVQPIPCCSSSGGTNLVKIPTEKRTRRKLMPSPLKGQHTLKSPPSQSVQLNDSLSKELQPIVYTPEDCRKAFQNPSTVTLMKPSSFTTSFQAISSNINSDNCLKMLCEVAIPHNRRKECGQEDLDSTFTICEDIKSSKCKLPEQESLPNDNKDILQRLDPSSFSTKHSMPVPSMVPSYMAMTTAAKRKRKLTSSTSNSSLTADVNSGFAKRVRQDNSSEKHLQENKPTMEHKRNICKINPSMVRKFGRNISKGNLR

pKa of ionizable groups = assay type: physicochemical
From the text: From high-throughput and manual polymorph screening, the present inventors generated various salts, hydrates, solvates, co-crystals of compound A; and a solid form of the Compound A, including crystalline anhydrous forms, salts, hydrates, solvates, and co-crystals thereof. […] Based on the solid-state properties of the free base forms of Compound A, and their inclinations to form solvates, the present inventors generated various salts, hydrates, solvates, and co-crystals of compound A that may be suitable for drug substance scale up and crystallization for pharmaceutical development.

[7] = pH 1.6, solubility from powder dissolution measurements
[8] = pH 6.5, solubility from powder dissolution measurements
[9] = pH 5.0, solubility from powder dissolution measurements
[10] = male, dog, plasma, po, 10 mg/kg, male dogs, fasted, cross-over
[11] = male, dog, plasma, po, 10 mg/kg, male dogs, fasted, cross-over, read-out: Tmax
[12] = male dogs, fasted, PO 10 mg/kg, cross-over, listed as Amorphous Cmp A, 10 mg/kg
[13] = male dogs, fasted, PO 10 mg/kg, cross-over, listed as Cmp A-Anhydrous Form 3, 10 mg/kg

Cc1cc(NC(=O)c2ccc(NS(=O)(=O)CCO)cc2N2CCC3(CC2)CC3)nc(N2CCC(F)(F)CC2)n1 [Anhydrous Compound A Form 5]
DVS observation in words [1]: rehydrated to the Compound A-Variable Hydrate Form 2

Cc1cc(NC(=O)c2ccc(NS(=O)(=O)CCO)cc2N2CCC3(CC2)CC3)nc(N2CCC(F)(F)CC2)n1 [Compound A-Variable Hydrate Form 2]
solubility, in words [2]: very low solubility | Sol (pH), FaSSGF [3, 7]: 20 μg/mL | Sol (pH), FaSSIF [3, 8]: 10.6 μg/mL | Sol (pH), FeSSIF [3, 9]: 144.5(5.0)^ μg/mL | Sol (pH), Water (first value pair after FeSSIF) [3]: 243 μg/mL | Sol (pH), Water (second value pair after FeSSIF) [3]: 23 μg/mL | IDR ([4]; listed as Cmp A-Variable Hydrate Form 2): 0.42 ug/min*cm^2 | DVS weight gain [1]: about 3.4%

Cc1cc(NC(=O)c2ccc(NS(=O)(=O)CCO)cc2N2CCC3(CC2)CC3)nc(N2CCC(F)(F)CC2)n1 [Compound A-Sulfate Form 1]
DVS observation in words ([1]; listed as Crystalline Compound A-Sulfate Form 1): deliquesces at 90% RH

Cc1cc(NC(=O)c2ccc(NS(=O)(=O)CCO)cc2N2CCC3(CC2)CC3)nc(N2CCC(F)(F)CC2)n1 [Compound A-TsA Form 4]
kinetic solubility, dissolution rate and supersaturation in FaSSIF, in words ([5]; listed as Tosylate (A-TsA or A-TSA) Salt Form 4): better than the Mesylate (A-MsA or A-MSA) Salt Form 1 | Sol (pH), FaSSIF ([5]; pH 6.5, listed as Cmp A-TSA Form 4): 160.6 (6.5) μg/mL

Cc1cc(NC(=O)c2ccc(NS(=O)(=O)CCO)cc2N2CCC3(CC2)CC3)nc(N2CCC(F)(F)CC2)n1.Cl [Compound A-HCl Form 1]
Sol (pH), FaSSIF ([5]; pH 6.5): 104.2 (6.5) μg/mL | powder dissolution compared with other forms, in words [3]: faster dissolution than the Compound A-Variable-Hydrate Form 2, or Compound A-Anhydrous Form 3, but a slower dissolution than the Amorphous Compound A | Sol (pH), FaSSGF [3, 7]: 6.3 ± 0.5 μg/mL | Sol (pH), FaSSIF [3, 8]: 62.7 ± 9.0 μg/mL | Sol (pH), FeSSIF [3, 9]: 437.1 ± 16.3 (5.0)^ μg/mL | Sol (pH), Water (first value pair after FeSSIF) [3]: 7.9 μg/mL | Sol (pH), Water (second value pair after FeSSIF) [3]: 13 μg/mL | IDR [4]: 2.14 ug/min*cm^2 | DVS weight gain [1]: less than 0.5% | exposure compared to Amorphous Compound A, in words (Dog cross-over PK study; dog, PO 10 mg/kg): lower exposure than the Amorphous Compound A form | increase in exposure compared to Compound A-Anhydrous Form 3 (Dog cross-over PK study; dog, PO 10 mg/kg): ~2 fold | AUC(0-t) (Dog cross-over PK study; [10]): 181 ± 79 µM·h | Cmax (Dog cross-over PK study; [10]): 4.7 ± 1.4 µM | Tmax (Dog cross-over PK study; [11]): 6 h | solubility [6]: ~8 mg/mL

Cc1cc(NC(=O)c2ccc(NS(=O)(=O)CCO)cc2N2CCC3(CC2)CC3)nc(N2CCC(F)(F)CC2)n1 [Amorphous Compound A]
IDR ([4]; listed as Amorphous Cmp A): 36.2 ug/min*cm^2 | AUCt (Dog cross-over PK study; [12]): 237 ± 68 µM·h | Cmax (Dog cross-over PK study; [12]): 6.9 ± 1.3 µM | Tmax (Dog cross-over PK study; [12]): 6.7 ± 2.3 h

Cc1cc(NC(=O)c2ccc(NS(=O)(=O)CCO)cc2N2CCC3(CC2)CC3)nc(N2CCC(F)(F)CC2)n1 [Anhydrous Compound A Form 3]
Sol (pH), FaSSGF ([3]; pH 1.6 (end of experiment), solubility from 2 hr time point): 99.3 μg/mL | Sol (pH), FaSSIF ([3]; pH 6.5 (end of experiment), solubility from 2 hr time point): 87 μg/mL | Sol (pH), FeSSIF ([3]; pH 5.0 (end of experiment), solubility from 2 hr time point): 352 (5.0)* μg/mL | Sol (pH), Water ([3]; Water, pH 8.0 (end of experiment), solubility from 2 hr time point): 5.4 (8.0)* μg/mL | DVS weight gain [1]: about 1.5% | AUCt (Dog cross-over PK study; [13]): 69 ± 6 µM·h | Cmax (Dog cross-over PK study; [13]): 2.3 ± 0.2 µM | Tmax (Dog cross-over PK study; [11]): 4.7 ± 1.2 h

Cc1cc(NC(=O)c2ccc(NS(=O)(=O)CCO)cc2N2CCC3(CC2)CC3)nc(N2CCC(F)(F)CC2)n1 [Compound A, 2-(6-azaspiro[2.5]octan-6-yl)-N-[2-(4,4-difluoropiperidin-1-yl)-6-methylpyrimidin-4-yl]-4-[(2-hydroxyethanesulfonyl)amino]benzamide]
ATPase activity inhibited (MT-ATPase vs basal ATPase) (KIF18A): inhibits MT-ATPase activity and not basal ATPase activity | pKa (pKa of ionizable groups; read-out: weakly acidic pKa): 7.3 | pKa (pKa of ionizable groups; read-out: weakly basic pKa): 3.9 | solubility [6]: ~18 mg/mL (≈ 31.9 mM)

Cc1cc(NC(=O)c2ccc(NS(=O)(=O)CCO)cc2N2CCC3(CC2)CC3)nc(N2CCC(F)(F)CC2)n1 [Compound A-MsA Form 1]
kinetic solubility, dissolution rate and supersaturation in FaSSIF, in words ([5]; listed as Mesylate (A-MsA or A-MSA) Salt Form 1): better than the HCl Salt Form 1 | Sol (pH), FaSSIF ([5]; pH 6.5, listed as Cmp A-MSA Form 1): 133.0 (6.5) μg/mL | DVS weight gain ([1]; listed as Crystalline Compound A-MsA Form 1): about 1.2% | DVS weight gain ([1]; listed as crystalline Compound A-MsA Salt Form 1): less than 1.2%
